In US7781446B2, “Use of CCI-779 as an antineoplastic agent” (Wyeth LLC, priority 2000, dated 2010):

Columns and labels:
[1] = tested on: Renal tumor line CRL-1161; test: In vitro growth of human renal tumor cells, 3H-thymidine uptake; format: cell-based; conditions: 48 hours with drug
Description: (§1) In vitro test procedure: Renal tumor lines HTB-44 and CRL-1161 were obtained from the American Tissue Culture Collection (ATCC), Bethesda, Md. SN12-C line was obtained from Dr. J. Fidler, M. D. Anderson Hospital, Houston, Tex. Cells were plated in MEM (Gibco) supplemented with 2 mM glutamine, 1 mM sodium pyruvate, 5 ml penicillin-streptomycin solution, 1 mM non-essential amino acid solution, 10% fetal bovine solution. Cells (5×10^3) were plated in 96 well plates with a final volume of […] and incubated for 24 hours at 37° C. Log dilutions of CCI-779 beginning at 100 μg/ml were then added to the cultures for 48 hours. Over the last 5 hours, cells were pulsed with 1 μci ^3H-thymidine (New England Nuclear, 6.7 ci/m Mol). Cells were then harvested and the degree of thymidine uptake determined by liquid scintillation spectrometry. The IC50 was determined as the concentration that produced 50% of the maximum uptake of thymidine in control untreated cells.
(§2) Human renal cell tumors were cultured in vitro in the presence or absence of CCI-779 for 3 days and the effect on growth determined by ^3H-thymidine incorporation of control versus treated cells.

[2] = tested on: Renal tumor line HTB-44; test: as above; format: cell-based; conditions: 48 hours with drug
Description: as §1, §2

[3] = tested on: Renal tumor line SN12-C; test: as above; format: cell-based; conditions: 48 hours with drug
Description: as §1, §2

[4] = tested on: CRL-1161 human renal tumor cells; test: Human renal tumor cell xenograft in nude mice; format: in vivo, Balb/c nu/nu mice; conditions: CRL-1161 xenograft; for Tumor Mass / % T/C (Treated/Control × 100): 25 mg/kg oral
Description: (§3) In vivo test procedure: Female Balb/c nu/nu mice were obtained from Charles River Labs, Wilmington, Del., at 6-8 weeks of age. Mice (n=10/group) were injected sc with 5×10^6 cells resuspended in a 50% solution of Matrigel (BD Biosciences) and tumors allowed to develop. When tumor size reached 100 mg, mice were treated orally with CCI-779 at 25 mg/kg. CCI-779 was dosed for 5 consecutive days with repeated 14 day cycles throughout the duration of the experiment. The formulation used for CCI-779 was a 50% ethanol, 49% phosal, 1% tween 80 vehicle for resuspending CCI-779, where the stock was resuspended into a 1:10 dilution of the vehicle prior to dosing. Tumor growth was evaluated using a vernier caliper and volume (l×w×h) was converted to mass using the formula: 1×w^2/2.
(§4) The effect of CCI-779 in two human renal lines (HTB-44 and CRL-1161) was evaluated in vivo by engrafting tumor cells on the flanks of nude mice. Once tumors were established at a size of about 100 mg, mice were treated with CCI-779 or a vehicle control.

[5] = tested on: HTB-44 human renal tumor cells; test: Human renal tumor cell xenograft in nude mice; format: in vivo, Balb/c nu/nu mice; conditions: HTB-44 xenograft; for Tumor Mass / % T/C (Treated/Control × 100): 25 mg/kg oral
Description: as §3, §4

[6] = tested on: advanced cancer (solid tumors and lymphomas) refractory to standard therapy; test: Phase I clinical trial, 30 minute i.v. infusion daily for 5 days every two to three weeks; format: in vivo, human
Description: (§5) Two single agent (CCI-779) Phase I clinical trials have been conducted. In the first study, CCI-779 was administered as a 30 minute i.v. infusion daily for 5 days, every two to three weeks. In the second study, CCI-779 was administered as a 30 minute i.v. infusion, once weekly. Both trials were open label, ascending dose, single-arm, multicenter studies. Patients were allowed to continue treatment as long as the CCI-779 was tolerated and there was no evidence of obvious disease progression. The following eligibility criteria were used:
(§6) Inclusion Criteria • 1. Patients with a histologic diagnosis of advanced cancer (solid tumors and, in the first study, lymphomas) who are refractory to standard therapy or for whom standard therapy is not appropriate. • 2. Measurable or evaluable disease. • 3. At least 3 weeks since prior chemotherapy and/or radiation therapy (6 weeks since nitrosoureas or mitomycin C). • 4. At least 4 weeks since any other investigational agent. • 5. Age at least 18 years old. • 6. Adequate bone marrow, renal, and hepatic function. • 7. Serum cholesterol<350 mg/dL and triglycerides […]. • 8. ECOG performance status 0-2. • 9. Life expectancy of at least 3 months. • 10. Signed, dated, witnessed written informed consent.
(§7) A total of 63 patients and 24 patients were enrolled in first and second studies, respectively. Dose levels ranged from 0.75-24 mg/m^2 and 7.5-220 mg/m^2, with the daily×5 every 2 weeks and weekly schedules, respectively.

[7] = tested on: advanced cancer (solid tumors) refractory to standard therapy; test: Phase I clinical trial, 30 minute i.v. infusion once weekly; format: in vivo, human; conditions: for number of partial responses: weekly dosage schedule
Description: as §5, §6, §7

[8] = Homo sapiens, read-out: CCI-779 IC50 (50% growth inhibitory concentration)
[9] = 5 consecutive days, 14 day cycles, day 0
[10] = 25 mg/kg, versus vehicle control
[11] = patients having soft tissue sarcoma, daily×5 dosage schedule
[12] = renal cancer patients, daily×5 schedule
[13] = patients having renal cancer, weekly schedule

CO[C@H]1C[C@@H]2CC[C@@H](C)[C@@](O)(O2)C(=O)C(=O)N2CCCC[C@H]2C(=O)O[C@H]([C@H](C)C[C@@H]2CC[C@@H](OC(=O)C(C)(CO)CO)[C@H](OC)C2)CC(=O)[C@H](C)/C=C(\C)[C@@H](O)[C@@H](OC)C(=O)[C@H](C)C[C@H](C)/C=C/C=C/C=C/1C [CCI-779, rapamycin 42-ester with 3-hydroxy-2-(hydroxymethyl)-2-methylpropionic acid]
CCI-779 IC50 (50% growth inhibitory concentration) [1]: low nM range | IC50 [1, 8]: 2 nM | CCI-779 IC50 (50% growth inhibitory concentration) [2]: low nM range | IC50 [2, 8]: 5 nM | CCI-779 IC50 (50% growth inhibitory concentration) [3]: low nM range | IC50 ([3]; Homo sapiens, SN12C, read-out: CCI-779 IC50 (50% growth inhibitory concentration)): 5.5 nM | Tumor Mass [4, 9]: 272 ± 14 mg | % T/C (Treated/Control × 100) ([4]; day 0): 100% | % T/C (Treated/Control × 100) ([4]; day 7): 62% | Tumor Mass ([4]; day 7): 219 ± 16 mg | % T/C (Treated/Control × 100) ([4]; day 21): 60% | Tumor Mass ([4]; day 21): 226 ± 17 mg | % T/C (Treated/Control × 100) ([4]; day 35): 42% | Tumor Mass ([4]; day 35): 200 ± 21 mg | % T/C (Treated/Control × 100) ([4]; day 49): 42% | Tumor Mass ([4]; day 49): 229 ± 28 mg | % T/C (Treated/Control × 100) ([4]; day 55): 53% | Tumor Mass ([4]; day 55): 268 ± 30 mg | inhibition of tumor cell growth in the mice [4, 10]: significant inhibition of tumor cell growth | Tumor Mass [5, 9]: 290 ± 15 mg | % T/C (Treated/Control × 100) ([5]; day 0): 101% | % T/C (Treated/Control × 100) ([5]; day 7): 71% | Tumor Mass ([5]; day 7): 156 ± 13 mg | % T/C (Treated/Control × 100) ([5]; day 21): 41% | Tumor Mass ([5]; day 21): 252 ± 48 mg | % T/C (Treated/Control × 100) ([5]; day 35): 41% | Tumor Mass ([5]; day 35): 453 ± 85 mg | % T/C (Treated/Control × 100) ([5]; day 49): 48% | Tumor Mass ([5]; day 49): 980 ± 155 mg | % T/C (Treated/Control × 100) ([5]; day 55): 44% | Tumor Mass ([5]; day 55): 1050 ± 183 mg | inhibition of tumor cell growth in the mice [5, 10]: significant inhibition of tumor cell growth | number of minor responses ([6]; patients having cervical cancer, daily×5 dosage schedule): one | number of partial responses ([6]; patients having non-small cell lung cancer, daily×5 dosage schedule): one | number of minor responses [6, 11]: 2 | number of possible partial responses [6, 11]: 1 | number of stable disease [6, 11]: 1 | number of unconfirmed minor responses ([6]; patients having uterine cancer, daily×5 dosage schedule): one | duration of stable disease [6, 12]: approximately 5 months | number of minor responses [6, 12]: 1 | number of stable disease (<25% increase to <25% reduction in tumor size) [6, 12]: 1 | number of unconfirmed minor responses [6, 12]: 1 | number of minor responses (≧25% but<50% reduction in tumor size) [7, 13]: 2 | number of partial responses (≧50% reduction in tumor size) [7, 13]: 1 | number of partial responses ([7]; patients with breast cancer): one | number of partial responses ([7]; patients with neuroendocrine tumor of the lung): one
